# Data as given in patent US20030187017A1, “Method for treating functional dyspepsia” (priority 2002, published 2003).
# Legend:
# FD patients [1] = assay: Adverse events in the 12-week clinical study in FD patients; assay type: in vivo, human
# Description: The study was double-blinded and placebo-matched. Eligible subjects were randomized (1:1:1:1 ratio) to either alosetron 0.5 mg, 1 mg, 2 mg, or matched placebo twice daily for a 12-week treatment phase followed by a one-week follow-up period. Laboratory evaluations and adverse events were recorded at the 4, 8 and 12-week (or final) treatment visits.
# Adverse events were coded and group by body system. Adverse events occurring after randomization were summarized separately from adverse events occurring during the screening phase. For each body system and over all body systems, the frequency of subjects reporting at least one adverse event was calculated by treatment group. In addition, the number of subjects reporting at least one drug-related adverse event and the number of subjects reporting serious adverse events were summarized by treatment group. The four treatment groups were compared using a correlation chi-square test; pairwise comparisons were made with Fisher's exact test.
# FD patients [2] = assay: 12-week double-blind placebo-matched clinical study in FD patients: adequate relief of upper abdominal pain or discomfort and FD symptoms; assay type: in vivo, human; conditions: for Average Weekly Adequate Relief of Pain and Discomfort, Adequate Relief Rates: 12 weeks
# Description: Three hundred and twenty (320) ambulatory outpatient male and female FD patients at least 18 years of age who have chronic or recurrent abdominal pain or discomfort centered in the upper abdomen were randomised for study comprising twelve (12) weeks of treatment: eighty one (81) were randomised to treatment with placebo BID, seventy seven (77) to 0.5 mg BID alosetron, seventy nine (79) to 1 mg BID alosetron, and eighty three (83) to 2 mg BID alosetron. Study participants included patients who have been diagnosed with FD and patients with symptoms that fulfilled the modified Rome criteria for FD for at least 6 months. Study participants were screened for two weeks prior to the testing phase, to confirm symptoms of sufficient severity for participation in the study. During the two-week screening period, those patients enrolled from the U.S. underwent a 90-minute gastric emptying test to characterize their gastric motility. At the end of the two-week period, all study participants underwent an esophagogastroduodenoseope (EGD) to rule out organic disease and obtain a biopsy for H. pylori within one month of screening. The study was double-blinded and placebo-matched. Eligible subjects were randomized (1:1:1:1 ratio) to either alosetron 0.5 mg, 1 mg, 2 mg, or matched placebo twice daily for a 12-week treatment phase followed by a one-week follow-up period. Laboratory evaluations and adverse events were recorded at the 4, 8 and 12-week (or final) treatment visits. The study was designed to elicit measurements relating to efficacy and safety. The primary endpoint was adequate relief of FD (upper abdominal) pain or discomfort. Secondary endpoints included 1) changes in daily upper abdominal pain severity ratings, 2) proportion of pain free days, 3) changes in self-ratings of nausea, early satiety, bloating or distension, post-prandial fullness and burping or belching, 4) changes in quality of life (QOL) SF-36 scores, 5) changes in SCL-90R® scores, and 6) safety and tolerability with respect to the incidence of adverse events and changes in laboratory values. Daily and weekly symptom data were collected using an electronic touch-tone telephone based system described in J. Harding, et al., Gastroenterology 112:[…] (1997); and J. Harding, et al., Aliment Pharm. Ther. 11:1073-761997. Severity of abdominal pain, nausea and bloating were assessed on a daily basis using a five point scale (0=none; 1=very mild; 2=mild; 3=moderate; 4=severe). During screening, the pain severity score was required to average ≧1.5 for entry into the study. During the treatment and follow-up phases, subjects were asked weekly if they had obtained adequate relief of their upper abdominal pain or discomfort during the previous 7 days. Subjects also responded daily to yes/no questions assessing whether early satiety, post-prandial fullness and burping or belching were present. Analyses were by Intent-to-Treat (ITT) using the last observation carried forward (LOCF) method for handling missing data. The ITT population included all subjects randomized to study treatment. The primary efficacy endpoint was the adequate relief of upper abdominal pain or discomfort. The 12-week average rate of adequate relief was calculated as the sum of the number of responses of “yes” over the 12 weeks of the treatment phase divided by 12 and multiplied by 100 using the LOCF approach. The proportion of patients with weekly adequate relief of upper abdominal pain or discomfort was compared between treatment groups using the Mantel-Haenszel test stratified by geographical clusters of treatment centers. Secondary efficacy measures included subject self-rating of pain severity, frequency and the FD symptoms of nausea, bloating/distension, burping/belching, early satiety and post-prandial fullness. […]
# healthy subjects = conditions: isobarometric and isovolumetric gastric distensions; cited from earlier work
# [3] = test system: FD patients and healthy controls; conditions: cited from earlier work
structure (smiles),measurement,setting,value
"Cc1[nH]cnc1CN1CCc2c(c3ccccc3n2C)C1=O [Alosetron, 2,3,4,5-tetrahydro-5-methyl-2-[(5-methyl-1H-imidazol-4-yl)methyl]-1H-pyrido[4,3-b]indol-1-one]",Adverse Events: Any event,FD patients [1]; 0.5 mg BID,68%
same,Adverse Events: GI event,FD patients [1]; 0.5 mg BID,58%
same,Adverse Events: Neurology,FD patients [1]; 0.5 mg BID,9%
same,Adverse Events: constipation,FD patients [1]; 0.5 mg BID,45%
same,Adverse Events: Any event,FD patients [1]; 1 mg BID,68%
same,Adverse Events: GI event,FD patients [1]; 1 mg BID,52%
same,Adverse Events: Neurology,FD patients [1]; 1 mg BID,4%
same,Adverse Events: constipation,FD patients [1]; 1 mg BID,34%
same,Adverse Events: Any event,FD patients [1]; 2 mg BID,75%
same,Adverse Events: GI event,FD patients [1]; 2 mg BID,63%
same,Adverse Events: Neurology,FD patients [1]; 2 mg BID,16%
same,Adverse Events: constipation,FD patients [1]; 2 mg BID,46%
same,Tolerability,FD patients [1]; FD patients,well-tolerated
same,"Average Weekly Adequate Relief, % with Adequate Relief","FD patients [2]; Abnormal gastric emptying (n = 14-16), 0.5 mg BID",51%
same,"Average Weekly Adequate Relief, % with Adequate Relief","FD patients [2]; Abnormal gastric emptying (n = 14-16), 1 mg BID",59%
same,"Average Weekly Adequate Relief, % with Adequate Relief","FD patients [2]; Abnormal gastric emptying (n = 14-16), 2 mg BID",45%
same,Abdominal pain and discomfort,"FD patients [2]; FD patients, particularly female FD patients",substantially improved
same,"Average Weekly Adequate Relief of Pain and Discomfort, Adequate Relief Rates","FD patients [2]; Females (n = 50-60), 0.5 mg BID",49
same,"Average Weekly Adequate Relief of Pain and Discomfort, Adequate Relief Rates","FD patients [2]; Females (n = 50-60), 1 mg BID",54
same,"Average Weekly Adequate Relief of Pain and Discomfort, Adequate Relief Rates","FD patients [2]; Females (n = 50-60), 2 mg BID",43
same,"Average Weekly Adequate Relief of Pain and Discomfort, Adequate Relief Rates","FD patients [2]; Males (n = 20-33), 0.5 mg BID",39
same,"Average Weekly Adequate Relief of Pain and Discomfort, Adequate Relief Rates","FD patients [2]; Males (n = 20-33), 1 mg BID",43
same,"Average Weekly Adequate Relief of Pain and Discomfort, Adequate Relief Rates","FD patients [2]; Males (n = 20-33), 2 mg BID",40
same,"Average Weekly Adequate Relief, % with Adequate Relief","FD patients [2]; Normal gastric emptying (n = 32-34), 0.5 mg BID",60%
same,"Average Weekly Adequate Relief, % with Adequate Relief","FD patients [2]; Normal gastric emptying (n = 32-34), 1 mg BID",56%
same,"Average Weekly Adequate Relief, % with Adequate Relief","FD patients [2]; Normal gastric emptying (n = 32-34), 2 mg BID",43%
same,Improvement in adequate relief by gastric emptying status,"FD patients [2]; all doses, subjects with normal and subjects with abnormal gastric emptying",Improvement was observed for all doses
same,Adequate relief rate as compared with placebo,"FD patients [2]; each dose (0.5, 1, 2 mg BID)",greater adequate relief rate as compared with placebo
same,"Nausea, early satiety and post-prandial fullness",FD patients [2]; female patients and patients with normal gastric emptying,substantially improved
same,Visceral perception scores,healthy subjects,effect similar to placebo
CN1[C@@H]2CC[C@H]1C[C@@H](OC(=O)c1c[nH]c3ccccc13)C2 [tropisetron],"Gastric accommodation, reflex relaxation or gastric sensitivity",[3],did not influence
